Experimental data reported in the supplement of paper PMC10307832.

Tests used:
Experiment in all cases: relative viability (nuclei count vs DMSO), 5 days (fraction); higher = more cells survive
NCI-H1299 = system: NCI-H1299
In short: (§1)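 Five library-drug doses in √10 steps were combined with a fixed anchor-drug dose, or a single drug was given alone, by pin tool to lung cancer cell lines in 1536-well plates the day after seeding. Nuclei were stained and counted after 5 days. Relative viability is the nuclei count in treated wells over that in vehicle wells, taken as the median of duplicate plates.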

EBC-1 = system: EBC-1
In short: as §1

ChaGo-K-1 = system: ChaGo-K-1
In short: as §1

NCI-H1703 = system: NCI-H1703
In short: as §1

IA-LM = system: IA-LM
In short: as §1

Calu-6 = system: Calu-6
In short: as §1

A549 = system: A549
In short: as §1

NCI-H1623 = system: NCI-H1623
In short: as §1

COc1cc(N2CCC(C(N)=O)CC2)ccc1Nc1nc(N)c(Cl)c(Nc2ccccc2S(=O)(=O)C(C)C)n1 [HG-5-88-01] + COc1cc2c(Oc3ccc(NC(=O)C4(C(=O)Nc5ccc(F)cc5)CC4)cc3F)ccnc2cc1OCCCN1CCOCC1 [Foretinib] (partner 0.25 µM)
relative viability (NCI-H1299; first compound 0.04 µM): 1.05 | relative viability (NCI-H1299; first compound 0.1265 µM): 1.11 | relative viability (NCI-H1299; first compound 0.4 µM): 1.1 | relative viability (NCI-H1299; first compound 1.265 µM): 1.07 | relative viability (NCI-H1299; first compound 4 µM): 1.1 | relative viability (EBC-1; first compound 0.04 µM): 0.0975 | relative viability (EBC-1; first compound 0.4 µM): 0.12 | relative viability (EBC-1; first compound 1.265 µM): 0.11 | relative viability (EBC-1; first compound 4 µM): 0.105 | relative viability (ChaGo-K-1; first compound 0.04 µM): 0.761 | relative viability (ChaGo-K-1; first compound 0.1265 µM): 1.03 | relative viability (ChaGo-K-1; first compound 0.4 µM): 0.804 | relative viability (ChaGo-K-1; first compound 1.265 µM): 0.942 | relative viability (ChaGo-K-1; first compound 4 µM): 0.909 | relative viability (NCI-H1703; first compound 0.04 µM): 0.41 | relative viability (NCI-H1703; first compound 0.1265 µM): 0.349 | relative viability (NCI-H1703; first compound 1.265 µM): 0.275 | relative viability (NCI-H1703; first compound 4 µM): 0.331 | relative viability (IA-LM; first compound 0.04 µM): 1.28 | relative viability (IA-LM; first compound 0.1265 µM): 1.22 | relative viability (IA-LM; first compound 0.4 µM): 1.05 | relative viability (IA-LM; first compound 1.265 µM): 0.885 | relative viability (IA-LM; first compound 4 µM): 1.18 | relative viability (Calu-6; first compound 0.04 µM): 0.865 | relative viability (Calu-6; first compound 0.1265 µM): 0.879 | relative viability (Calu-6; first compound 0.4 µM): 0.866 | relative viability (Calu-6; first compound 1.265 µM): 0.793 | relative viability (Calu-6; first compound 4 µM): 0.686 | relative viability (A549; first compound 0.04 µM): 0.984 | relative viability (A549; first compound 0.1265 µM): 0.861 | relative viability (A549; first compound 0.4 µM): 0.993 | relative viability (A549; first compound 1.265 µM): 0.87 | relative viability (A549; first compound 4 µM): 0.228 | relative viability (NCI-H1623; first compound 0.04 µM): 0.925 | relative viability (NCI-H1623; first compound 0.1265 µM): 0.906 | relative viability (NCI-H1623; first compound 0.4 µM): 0.845 | relative viability (NCI-H1623; first compound 4 µM): 0.773

Clc1ccc(Nc2nnc(Cc3ccncc3)c3ccccc23)cc1 [Vatalanib] + COc1cc2c(Oc3ccc(NC(=O)C4(C(=O)Nc5ccc(F)cc5)CC4)cc3F)ccnc2cc1OCCCN1CCOCC1 [Foretinib] (partner 0.25 µM)
relative viability (NCI-H1299; first compound 0.04 µM): 1.1 | relative viability (NCI-H1299; first compound 0.1265 µM): 1.07 | relative viability (NCI-H1299; first compound 0.4 µM): 1.15 | relative viability (NCI-H1299; first compound 1.265 µM): 1.11 | relative viability (NCI-H1299; first compound 4 µM): 1.11 | relative viability (EBC-1; first compound 0.04 µM): 0.111 | relative viability (EBC-1; first compound 0.1265 µM): 0.109 | relative viability (EBC-1; first compound 0.4 µM): 0.0892 | relative viability (EBC-1; first compound 1.265 µM): 0.0958 | relative viability (EBC-1; first compound 4 µM): 0.118 | relative viability (ChaGo-K-1; first compound 0.04 µM): 1 | relative viability (ChaGo-K-1; first compound 0.1265 µM): 0.916 | relative viability (ChaGo-K-1; first compound 0.4 µM): 0.976 | relative viability (ChaGo-K-1; first compound 1.265 µM): 0.881 | relative viability (ChaGo-K-1; first compound 4 µM): 0.893 | relative viability (NCI-H1703; first compound 0.04 µM): 0.323 | relative viability (NCI-H1703; first compound 0.4 µM): 0.335 | relative viability (NCI-H1703; first compound 1.265 µM): 0.34 | relative viability (NCI-H1703; first compound 4 µM): 0.363 | relative viability (IA-LM; first compound 0.04 µM): 1.16 | relative viability (IA-LM; first compound 0.1265 µM): 1.16 | relative viability (IA-LM; first compound 0.4 µM): 1.05 | relative viability (IA-LM; first compound 1.265 µM): 0.919 | relative viability (IA-LM; first compound 4 µM): 1.06 | relative viability (Calu-6; first compound 0.04 µM): 0.967 | relative viability (Calu-6; first compound 0.1265 µM): 0.765 | relative viability (Calu-6; first compound 0.4 µM): 0.926 | relative viability (Calu-6; first compound 1.265 µM): 0.869 | relative viability (Calu-6; first compound 4 µM): 0.813 | relative viability (A549; first compound 0.04 µM): 1.06 | relative viability (A549; first compound 0.1265 µM): 0.909 | relative viability (A549; first compound 0.4 µM): 1.01 | relative viability (A549; first compound 1.265 µM): 0.881 | relative viability (A549; first compound 4 µM): 0.948 | relative viability (NCI-H1623; first compound 0.04 µM): 0.816 | relative viability (NCI-H1623; first compound 0.1265 µM): 0.861 | relative viability (NCI-H1623; first compound 0.4 µM): 0.794 | relative viability (NCI-H1623; first compound 1.265 µM): 0.854 | relative viability (NCI-H1623; first compound 4 µM): 0.783

CC(C)Oc1cc(Nc2nc(N[C@@H](C)c3ccc(F)cn3)ncc2Cl)n[nH]1 [AZ23] + COc1cc2c(Oc3ccc(NC(=O)C4(C(=O)Nc5ccc(F)cc5)CC4)cc3F)ccnc2cc1OCCCN1CCOCC1 [Foretinib] (partner 0.25 µM)
relative viability (NCI-H1299; first compound 0.01 µM): 1.19 | relative viability (NCI-H1299; first compound 0.03162 µM): 1.16 | relative viability (NCI-H1299; first compound 0.3162 µM): 1.18 | relative viability (EBC-1; first compound 0.01 µM): 0.103 | relative viability (EBC-1; first compound 0.03162 µM): 0.105 | relative viability (EBC-1; first compound 0.3162 µM): 0.0863 | relative viability (ChaGo-K-1; first compound 0.01 µM): 1.17 | relative viability (ChaGo-K-1; first compound 0.03162 µM): 0.906 | relative viability (ChaGo-K-1; first compound 0.3162 µM): 0.95 | relative viability (NCI-H1703; first compound 0.01 µM): 0.331 | relative viability (NCI-H1703; first compound 0.03162 µM): 0.342 | relative viability (NCI-H1703; first compound 0.3162 µM): 0.314 | relative viability (IA-LM; first compound 0.01 µM): 1.35 | relative viability (IA-LM; first compound 0.03162 µM): 1.17 | relative viability (IA-LM; first compound 0.3162 µM): 1.33 | relative viability (Calu-6; first compound 0.03162 µM): 0.923 | relative viability (Calu-6; first compound 0.3162 µM): 0.867 | relative viability (A549; first compound 0.01 µM): 1.01 | relative viability (A549; first compound 0.03162 µM): 1.03 | relative viability (A549; first compound 0.3162 µM): 1.08 | relative viability (NCI-H1623; first compound 0.01 µM): 0.712 | relative viability (NCI-H1623; first compound 0.03162 µM): 0.924 | relative viability (NCI-H1623; first compound 0.3162 µM): 0.966

C[C@@H]1CN(CC(=O)Nc2ccc3c(c2)Cc2cccc(-c4cc(=O)cc(N5CCOCC5)o4)c2S3)C[C@H](C)O1 + COc1cc2c(Oc3ccc(NC(=O)C4(C(=O)Nc5ccc(F)cc5)CC4)cc3F)ccnc2cc1OCCCN1CCOCC1 [Foretinib] (partner 0.25 µM)
relative viability (NCI-H1299; first compound 0.04 µM): 1.11 | relative viability (NCI-H1299; first compound 0.1265 µM): 1.1 | relative viability (NCI-H1299; first compound 0.4 µM): 1.06 | relative viability (NCI-H1299; first compound 4 µM): 0.995 | relative viability (EBC-1; first compound 0.04 µM): 0.119 | relative viability (EBC-1; first compound 0.1265 µM): 0.113 | relative viability (EBC-1; first compound 0.4 µM): 0.102 | relative viability (EBC-1; first compound 4 µM): 0.129 | relative viability (ChaGo-K-1; first compound 0.04 µM): 0.793 | relative viability (ChaGo-K-1; first compound 0.1265 µM): 0.929 | relative viability (ChaGo-K-1; first compound 0.4 µM): 0.892 | relative viability (ChaGo-K-1; first compound 4 µM): 0.825 | relative viability (NCI-H1703; first compound 0.04 µM): 0.367 | relative viability (NCI-H1703; first compound 0.1265 µM): 0.299 | relative viability (NCI-H1703; first compound 0.4 µM): 0.36 | relative viability (NCI-H1703; first compound 4 µM): 0.295 | relative viability (IA-LM; first compound 0.04 µM): 1.19 | relative viability (IA-LM; first compound 0.1265 µM): 1.37 | relative viability (IA-LM; first compound 0.4 µM): 1.27 | relative viability (IA-LM; first compound 4 µM): 0.56 | relative viability (Calu-6; first compound 0.04 µM): 0.859 | relative viability (Calu-6; first compound 0.1265 µM): 0.841 | relative viability (Calu-6; first compound 0.4 µM): 0.896 | relative viability (Calu-6; first compound 4 µM): 0.639 | relative viability (A549; first compound 0.04 µM): 0.818 | relative viability (A549; first compound 0.1265 µM): 1.01 | relative viability (A549; first compound 0.4 µM): 0.895 | relative viability (A549; first compound 4 µM): 0.823 | relative viability (NCI-H1623; first compound 0.04 µM): 0.771 | relative viability (NCI-H1623; first compound 0.1265 µM): 0.837 | relative viability (NCI-H1623; first compound 0.4 µM): 0.88 | relative viability (NCI-H1623; first compound 4 µM): 0.786
